Experimental data as given in the supplement of paper PMC10883282.

How the values were obtained:
Experiment in all cases: relative viability vs DMSO control (72 h) (fraction); higher = more viable cells
G401 = tested on: G401
Summary of the method: (§1)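 Relative viability is percent growth read by ATPLite and averaged over up to triplicate wells. Sarcoma cells were seeded in 384-well plates to reach 80–90% confluence and given 2.5 µl of serially diluted compound after 24 h, from source plates of 10 mM to 0.0002 mM. Incubation lasted 72 h at 37 °C, 5% CO2, with 0.1% DMSO vehicle and a 5 µM positive control, and the data were rescaled so 1 equals full and 0 equals none.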

A204 = tested on: A204
Summary of the method: as §1

SW1353 = tested on: SW1353
Summary of the method: as §1

SW872 = tested on: SW872
Summary of the method: as §1

SYO-1 = tested on: SYO-1
Summary of the method: as §1

SW684 = tested on: SW684
Summary of the method: as §1

CN(C)C(=O)c1cc2cnc(Nc3ccc(N4CCNCC4)cn3)nc2n1C1CCCC1 [Ribociclib]
relative viability
Settings | A204 | G401 | SW684 | SW872 | SW1353 | SYO-1
0.00017 µM | 1.07 | 0.987 | 1.16 | 1.03 | 1.01 | 0.96
0.00051 µM | 1.09 | 0.968 | 1.16 | 1.01 | 1 | 0.956
0.00152 µM | 1.08 | 1.02 | 1.14 | 1.02 | 0.974 | 0.96
0.00457 µM | 1.09 | 0.983 | 1.15 | 1.02 | 0.985 | 0.937
0.01372 µM | 1.05 | 0.97 | 1.13 | 1.02 | 0.992 | 0.923
0.04115 µM | 1.05 | 0.899 | 1.15 | 0.996 | 0.961 | 0.87
0.1235 µM | 0.967 | 0.898 | 1.15 | 0.959 | 0.921 | 0.814
0.3704 µM | 0.907 | 0.886 | 1.14 | 0.938 | 0.918 | 0.772
1.111 µM | 0.921 | 0.846 | 1.17 | 0.946 | 0.901 | 0.705
3.333 µM | 0.795 | 0.794 | 1.1 | 0.818 | 0.802 | 0.598
10 µM | 0.639 | 0.774 | 1.05 | 0.713 | 0.858 | 0.523
